Results from US20120022142A1, “RNA Interference Mediated Inhibition of Signal Transducer and Activator of Transcription 1 (STAT1) Gene Expression Using Short Interfering Nucleic Acid (siNA)” (Merck Sharp & Dohme Corp., priority 2009, published 2012).
[invAb] = inverted abasic unit; m = 2'-O-methyl; r = 2'-OH (RNA); f = 2'-fluoro

Legend:
STAT1 mRNA [1] = test: Efficacy (% KD) and potency (IC50) of STAT1 mRNA knockdown of siNA leads in A549 cells; type: cell-based, human; details: for Human (A549) avg % KD: STAT1 mRNA, 30 nM siNA, at least three experiments
Description: (§1) A549 cells were plated in 6-well plates at final counts of 70,000 cells/well in 2 ml of complete growth media (Ham's F12, Cellgro Cat# 10-080-CV+10% FBS). Transfection was performed using 2.5 uL of RNAiMax (Invitrogen Cat# 13778-150) per well. Final concentration of siNAs was 30, 3, 0.3, 0.03, 0.003, and 0.0003 nM done in duplicate. The siNAs were incubated for 24-72 hours. The duplicate samples were pooled to prepare protein lysates and RNA using the “PARIS” Protein and RNA Isolation System from Ambion, Cat# 1921. The total protein in the lysates was measured using a Bradford Dye Reagent (Bio-Rad, Cat# 500-0205).SDS-PAGE/Western Blotting was performed on the on the protein samples and RT-PCR on the RNA samples.
(§2) A series of probes and primers were used to detect the various mRNA transcripts of the genes of β-Actin (human cell line only), and of STAT1 and GAPDH in mouse and human cell lines. All Taqman probes and primers for the experiments here-in described were supplied as pre-validated sets by Applied Biosystems, Inc. (see Table 2).
(§3) The assays were performed on an ABI 7900 instrument, according to the manufacturer's instructions.
(§4) The expression level of the gene of interest and % knock-down was calculated using Comparative Ct method: […]
(§5) All calculations of IC50s were performed using SigmaPlot 10.0 software. The data were analyzed using the sigmoidal dose-response (variable slope) equation for simple ligand binding. In all of the calculations of the % knock-down, the calculation was made relative to the normalized level of expression of the gene of interest in the samples treated with the non-targeting control (Ctrl siNA) unless otherwise indicated.
(§6) Certain siNAs were further analyzed for efficacy in human A549 cells and mouse NIH3T3 cells. Percent KD/reduction is represented as mean±S.D. IC50 is represented as mean±S.D. The date is summarized from at least three separate experiments and within each experiment, the data point is calculated from an n=2. The final concentration of siNA used was 30 nM.

STAT1 mRNA [2] = test: Efficacy (% KD) and potency (IC50) of STAT1 mRNA knockdown of siNA leads in NIH3T3 cells; type: cell-based, mouse; details: mean ± S.D.; for IC50: STAT1 mRNA knockdown, read-out: Mouse (NIH3T3) IC50; for Mouse (NIH3T3) avg % KD: STAT1 mRNA, 30 nM siNA, at least three experiments
Description: NIH 3T3 (mouse; ATCC cat# CRL-1658): Cells were cultured at 37° C. in the presence of 5% CO2 and grown in Dulbecco's modified Eagle's medium (DMEM) with 4 mM L-glutamine adjusted to contain 1.5 g/L sodium bicarbonate and 4.5 g/L glucose and supplemented with fetal bovine serum at a final concentration of 10%, 100 μg/mL of streptomycin, and 100 U/mL penicillin.
as §2, §3, §4, §5, §6

STAT1 protein = test: STAT1 Western Blot in transfected A549 cells; type: cell-based, human; details: % protein remaining (STAT1α and STAT1β together), A549, 30 nM; for Protein 24 hr: 24 hr post-transfection; for Protein 48 hr: 48 hr post-transfection; for Protein 72 hr: 72 hr post-transfection
Description: as §1
The protein source for the Western Blot experiments were from transfection of A549 cells in a 6 well plate, as described above.
Protein samples were diluted 1:1 in 2× Laemmli buffer with 5% β-mercapto-ethanol and incubated at 95° C. for 5 minutes. 10 ug of protein was loaded in each lane of 7.5% Tris-HCl gel. One lane was designated for MagicMark Protein Standard (Invitrogen # LC5602). Another lane was designated for a Precision Plus Protein Standard (Bio-Rad, Cat# 161-0374). The gel was run at 100V for approximately 2 hours. Protein was transferred to a PVDF membrane at 100V for 60 minutes. Once the transfer was finished, the membrane was blocked in 1% Casein in PBS (BioRad Cat#161-0783) for 1 hour on a plate rocker at room temperature followed by the overnight incubation at 4° C. with STAT1 primary antibody (Clontech, Cat# 610185) diluted 1:500 in 1% Casein in PBS. On the next day, the blot was washed 4×5 minutes in PBST (0.1% Tween-20 in PBS) solution and incubated for 30 minutes at room temperature with goat anti-mouse secondary antibody (Pierce Cat #3 31430) diluted 1:20,000 in 1% Casein in PBS. Then, the blot was washed 4×5 minutes with PBST, rinsed with PBS, and incubated for 1 minute with ECL Western Blotting Substrate (Pierce Biotechnology, Cat# 32106). The bands were visualized on the Bio-Rad VersaDoc Imager.
The level of protein was quantified using the Bio-Rad VersaDoc Imager according to the protocols of that piece of equipment. A pixel count was performed in each lane using an area of identical size. Each sample was then compared to the appropriate control treated sample and converted to a percent of protein remaining compared to control.
An assessment of the level of mRNA at each timepoint was also made and protein samples from the treated cells were used in Western blots with an α-STAT1 antibody. (Clontech, Cat# 610185) and anti-Tubulin Ab (Sigma # T6199) in human A549 cells. Cells were transfected 24, 48 or 72 hours before harvesting total protein and the final concentration of siNAs was 30 nM. Lanes were loaded with 10 ug of total protein. Quantification was done of both the STAT1α and the STAT1β proteins together. All the siNAs tested reduced STAT1 protein at each of the tested timepoints, with the highest degree of protein reduction being observed at 72 hours post-transfection.

TLR3 = TLR3 mediated immunostimulation (OAS1 mRNA increase) in NHBE cells; type: cell-based, human; details: % increase in OAS1 mRNA, 0.01-100 nM siNA, n = 3 donors
Description: NHBE cell were treated as describe above in Example 2 and used for the measurement of endosomal TLR3 mediated immunostimulation, with the inclusion of polyI:C as a positive control for OAS1 mRNA upregulation. For the measurement of membrane bound TLR3 mediated immunostimulation, the NHBE cells were cultured at 1200 cells/per 96 well and siNAs administered in PBS in the absence of a delivery vehicle at (100 nM, 30 nM, 10 nM, 3 nM, 1 nM, 0.3 nM, 0.1 nM, 0.03 nM, 0.01 nM).
Cell surface TLR3 mediated immunostimulation responses were measured by recording the % increase in OAS1 mRNA levels when the NHBE cells were treated with the siNAs in the absence of a delivery vehicle. (% increase in OAS1 mRNA levels relative to the PBS dilutant).
To determine immunostimulation TLR3 mediated % increase in OAS1(immunostimulatory biomarker) mRNA levels, a nine point dose response was measured using 0.01-100 nM concentration of siNA 25368-DC and siNA 25372-DC.
Endosomal TLR3 mediated immuno stimulation was measured by recording the % increase in OAS1 mRNA levels when the NHBE cells were transfected with the siNAs. (% increase in OAS1 mRNA levels relative to the transfection agent control). The TLR3 agonist Poly I:C is used as a positive control for OAS1 mRNA induction.

[3] = A549 cells, Table 5, read-out: IC50 vs. STAT1 mRNA
[4] = STAT1 mRNA knockdown, mean ± S.D., read-out: Human (A549) IC50

Substance	IC50 (STAT1 mRNA [1]; [3])	IC50 (STAT1 mRNA [1]; [4])	Human (A549) avg % KD (STAT1 mRNA [1]; mean ± S.D.)	IC50 (STAT1 mRNA [2])	Mouse (NIH3T3) avg % KD (STAT1 mRNA [2])	Protein 24 hr (STAT1 protein)	Protein 48 hr (STAT1 protein)	Protein 72 hr (STAT1 protein)	Immunostimulation TLR3 mediated OAS1 (TLR3)
25369-DC: STAT1 siNA duplex, human target site 602; modified strands SEQ ID NO: 75 and 76 (chain 1 GGAAAAGCAAGCGUAAUCUTT; chain 2 AGAUUACGCUUGCUUUUCCUU; chain 1: DNA at AGT, 2'-fluoro at CU, [invAb] at 5' end, 3' end, backbone not given here; chain 2: sugars from the 5' end rrrffmfmfffmfffffffmm, backbone not given here)	0.012 ± 0.002 nM	0.097 ± 0.018 nM	88.8 ± 3.1%	0.58 ± 0.109 nM	60.8 ± 3.5%	85%	58%	38%	–
25351-DC: STAT1 siNA duplex, human target site 2249; modified strands SEQ ID NO: 39 and 40 (chain 1 CCUACACGAAGAAAGAACUTT; chain 2 AGUUCUUUCUUCGUGUAGGUU; chain 1: DNA at AGT, 2'-fluoro at CU, [invAb] at 5' end, 3' end, backbone not given here; chain 2: sugars from the 5' end rrrfffffffffmfmfmmmmm, backbone not given here)	0.025 ± 0.009 nM	0.012 ± 0.002 nM	91.7 ± 0.1%	0.248 ± 0.086 nM	85.1 ± 3.5%	87%	48%	20%	–
25372-DC: STAT1 siNA duplex, human target site 968; modified strands SEQ ID NO: 81 and 82 (chain 1 UUGACAAUAAGAGAAAGGATT; chain 2 UCCUUUCUCUUAUUGUCAAUU; chain 1: DNA at AGT, 2'-fluoro at CU, [invAb] at 5' end, 3' end, backbone not given here; chain 2: sugars from the 5' end rrrffffffffmffmffmmmm, backbone not given here)	0.032 ± 0.014 nM	0.025 ± 0.009 nM	86.0 ± 2.0%	0.182 ± 0.051 nM	87.3 ± 7.2%	76%	54%	29%	No significant effect up to 100 nM
25368-DC: STAT1 siNA duplex, human target site 782; modified strands SEQ ID NO: 73 and 74 (chain 1 GUAAAGUCAGAAAUGUGAATT; chain 2 UUCACAUUUCUGACUUUACUU; chain 1: DNA at AGT, 2'-fluoro at CU, [invAb] at 5' end, 3' end, backbone not given here; chain 2: sugars from the 5' end rrrmfmfffffmmffffmfmm, backbone not given here)	0.097 ± 0.018 nM	0.01 ± 0.0064 nM	89.1 ± 1.8%	0.072 ± 0.023 nM	89.9 ± 6.0%	80%	54%	20%	No significant effect up to 100 nM
25367-DC: STAT1 siNA duplex, human target site 966; modified strands SEQ ID NO: 71 and 72 (chain 1 GCUUGACAAUAAGAGAAAGTT; chain 2 CUUUCUCUUAUUGUCAAGCUU; chain 1: DNA at AGT, 2'-fluoro at CU, [invAb] at 5' end, 3' end, backbone not given here; chain 2: sugars from the 5' end rrrffffffmffmffmmmfmm, backbone not given here)	0.01 ± 0.0064 nM	0.032 ± 0.014 nM	88.6 ± 1.1%	0.16 ± 0.034 nM	84.6 ± 2.6%	83%	53%	30%	–
